We go through ten compounds from ChEMBL document CHEMBL1201862, “PubChem BioAssay data set” (2004).

Molecules are shown by their SMILES.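 96-well plates; 48 h exposure; 5 concentrations. Endpoints by linear interpolation between flanking doses. Not reached: highest tested concentration assigned. At the GI50, growth is halved.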 Activity calls are given as the source filed them. Rule as the data show it: active = GI50 up to about 1.1 µM and inactive = higher.

Among the test systems are NCI-H522; SK-MEL-28; COLO 205; NCI/ADR-RES; DU-145; IGROV-1; K562; SR; OVCAR-4; SNB-19; U-251; MDA-N; MCF7; LOX IMVI; CAKI-1; SNB-75; M14; A498; RXF 393.
Holding throughout (assay): NCI-60 cell line screen, 48 h

As to `Nc1ccc2c(c1)NC(=O)[C@@H]1CCCN1C2=O`, the GI50 in the test with NCI-H522, with SK-MEL-28, in the test on COLO 205, in the test with NCI/ADR-RES, in the test on DU-145 and in the test on IGROV-1 was > 100 µM (inactive) each time. For the same compound, the GI50 in the test with K562, in the test with SR, in the test with OVCAR-4, in the test on SNB-19, in the test on U-251 and in the test on MDA-N was > 100 µM (inactive) in each case. For the same compound, the GI50 with MCF7, in the test with LOX IMVI, with CAKI-1, in the test with SNB-75, with M14 and in the test with A498 was > 100 µM (inactive) in each case. Further, the GI50 in the test on RXF 393 was > 100 µM (inactive).
Regarding `CCCCC(C(=O)NCCNC(=O)CCC(=O)N(C)O)C(=O)NCCNC(=O)CCC(=O)N(C)O`, the GI50 in the test on NCI-H522, in the test on SK-MEL-28, in the test on COLO 205, in the test on NCI/ADR-RES, in the test with DU-145 and in the test with IGROV-1 was > 100 µM (inactive) each time. For the same compound, the GI50 with K562, in the test on SR, in the test with OVCAR-4, in the test on SNB-19, in the test on U-251 and in the test on MDA-N was > 100 µM (inactive) throughout. Further, the GI50 in the test with MCF7, in the test on LOX IMVI, with CAKI-1, in the test on SNB-75, in the test on M14 and in the test on A498 was > 100 µM (inactive) each time. In addition, in the test on RXF 393, the GI50 is > 100 µM (inactive).
As to `CCOC(=O)NC(OC)(C(F)(F)F)C(F)(F)F`, the GI50 in the test with NCI-H522, in the test with SK-MEL-28, in the test with COLO 205, in the test with NCI/ADR-RES, in the test with DU-145 and in the test with IGROV-1 was > 100 µM (inactive) each time. The GI50 in the test with K562, in the test with SR, with OVCAR-4, with SNB-19, in the test with U-251 and in the test on MDA-N was > 100 µM (inactive) throughout. The GI50 with MCF7, in the test with LOX IMVI, with CAKI-1, with SNB-75, in the test on M14 and in the test on A498 was > 100 µM (inactive) throughout. For the same compound, the GI50 with RXF 393 is > 100 µM (inactive).
On to `C=C1C(=O)OC2C3OC(C)(CCC(O)C3COC(C)=O)CC(OC(=O)/C(=C/C)COC(C)=O)C12` (stereo not given), for which the GI50 was 0.0317 µM (active) with NCI-H522; 0.116 µM (active) with SK-MEL-28; 0.082 µM (active) in the test on COLO 205; 0.59 µM (active) in the test on NCI/ADR-RES; 0.778 µM (active) in the test on DU-145; 0.738 µM (active) with IGROV-1. For the same compound, the GI50 with K562 was 0.0775 µM (active); in the test with SR, 0.196 µM (active); with OVCAR-4, 1.9 µM (inactive); with SNB-19, 5.32 µM (inactive); with U-251, 1.22 µM (inactive); with MDA-N it was 0.155 µM (active). The GI50 is 0.128 µM (active) in the test on MCF7; 0.163 µM (active) in the test on LOX IMVI; 0.166 µM (active) with CAKI-1; 4.66 µM (inactive) with SNB-75; 0.469 µM (active) with M14; 1.58 µM (inactive) in the test on A498. Besides, the GI50 in the test with RXF 393 is 0.223 µM (active).
Consider `O=c1[nH]c(=O)n(C/C=C/CBr)nc1Br`, for which the GI50 was 4.33 µM (inactive) in the test with NCI-H522; 14.9 µM (inactive) in the test with SK-MEL-28; 14.2 µM (inactive) in the test on COLO 205; 17.6 µM (inactive) with NCI/ADR-RES; > 100 µM (inactive) in the test with DU-145; 15.9 µM (inactive) in the test with IGROV-1. Also, the GI50 is 15.8 µM (inactive) in the test on K562; 3.08 µM (inactive) in the test on SR; 10.4 µM (inactive) in the test on OVCAR-4; 14.7 µM (inactive) in the test with SNB-19; 9.4 µM (inactive) with U-251; 14.1 µM (inactive) in the test with MDA-N. Moreover, the GI50 is 10.1 µM (inactive) with MCF7; 1.81 µM (inactive) with LOX IMVI; 11.9 µM (inactive) with CAKI-1; 12 µM (inactive) in the test on SNB-75; 13.9 µM (inactive) with M14; 13.5 µM (inactive) with A498. Also, in the test with RXF 393, the GI50 was 12 µM (inactive).
Regarding `COC1(C)CP(=O)(OC(C)C)CC(C)=C1Cl` (stereo not given), the GI50 in the test with NCI-H522 is 9.62 µM (inactive); in the test with SK-MEL-28, 21.7 µM (inactive); in the test with COLO 205, 14.5 µM (inactive); with NCI/ADR-RES it was 17.8 µM (inactive); in the test with DU-145, 19.3 µM (inactive); in the test with IGROV-1, 11.6 µM (inactive). Besides, the GI50 is 3.36 µM (inactive) in the test on K562; 7.19 µM (inactive) with SR; 15 µM (inactive) in the test with OVCAR-4; 28.4 µM (inactive) in the test with SNB-19; 10.6 µM (inactive) with U-251; 13.2 µM (inactive) in the test on MDA-N. In addition, the GI50 in the test on MCF7 was 4.67 µM (inactive); in the test with LOX IMVI it was 11.7 µM (inactive); in the test with CAKI-1 it was 17 µM (inactive); with SNB-75, 46.9 µM (inactive); in the test with M14, 13.7 µM (inactive); in the test with A498 it was 9.42 µM (inactive). Moreover, in the test with RXF 393, the GI50 is 21.4 µM (inactive).
Take `CN(CCC(=O)O)S(=O)(=O)c1ccccc1`: the GI50 in the test on NCI-H522, in the test with SK-MEL-28, with COLO 205, in the test with NCI/ADR-RES, in the test with DU-145 and in the test with IGROV-1 was > 100 µM (inactive) each time. Besides, the GI50 in the test with K562, with SR, in the test on OVCAR-4, in the test on SNB-19, in the test with U-251 and with MDA-N was > 100 µM (inactive) in each case. Moreover, the GI50 in the test with MCF7 was > 100 µM (inactive); in the test on LOX IMVI it was > 100 µM (inactive); in the test on CAKI-1 it was > 100 µM (inactive); with SNB-75, 80.2 µM (inactive); in the test on M14, > 100 µM (inactive); in the test on A498 it was > 100 µM (inactive). In addition, the GI50 in the test with RXF 393 was > 100 µM (inactive).
In the case of `Cn1c2ccccc2c2c3c(c4c5ccccc5n(C5OC(CO)C(O)C(O)C5O)c4c21)C(=O)OC3=O` (stereo not given), the GI50 in the test on NCI-H522, in the test with SK-MEL-28, with COLO 205, in the test with NCI/ADR-RES, in the test on DU-145 and with IGROV-1 was > 100 µM (inactive) each time. In addition, the GI50 with K562, in the test on SR, in the test with OVCAR-4, in the test with SNB-19, in the test on U-251 and in the test with MDA-N was > 100 µM (inactive) in each case. Further, the GI50 with MCF7 was > 100 µM (inactive); in the test on LOX IMVI it was > 100 µM (inactive); in the test on CAKI-1, > 100 µM (inactive); in the test with SNB-75, 87.3 µM (inactive); with M14, > 100 µM (inactive); with A498, > 100 µM (inactive). In addition, the GI50 with RXF 393 is > 100 µM (inactive).
Turning to `CCc1n[nH]c(=O)n1-n1c(C)ccc1C`, the GI50 in the test with NCI-H522, with SK-MEL-28, with COLO 205, in the test on NCI/ADR-RES, in the test with DU-145 and in the test with IGROV-1 was > 100 µM (inactive) in each case. In addition, the GI50 in the test on K562, in the test with SR, in the test with OVCAR-4, with SNB-19, with U-251 and in the test on MDA-N was > 100 µM (inactive) each time. The GI50 with MCF7, in the test with LOX IMVI, in the test with CAKI-1, with SNB-75, with M14 and with A498 was > 100 µM (inactive) each time. Also, the GI50 in the test with RXF 393 was > 100 µM (inactive).
For `NC(=S)N/N=C\CC(O)(C(F)(F)F)C(F)(F)F`, the GI50 with NCI-H522, with SK-MEL-28, in the test on COLO 205, in the test with NCI/ADR-RES, in the test on DU-145 and in the test with IGROV-1 was > 10 µM (inactive) throughout. Moreover, the GI50 in the test on K562, in the test with SR, in the test on OVCAR-4, with SNB-19, with U-251 and with MDA-N was > 10 µM (inactive) throughout. The GI50 with MCF7, with LOX IMVI, with CAKI-1, in the test on SNB-75, in the test with M14 and in the test on A498 was > 10 µM (inactive) throughout. Also, the GI50 with RXF 393 is > 10 µM (inactive).
